Test results taken from patent US20230183293A1, “METHODS OF TREATING OR PREVENTING CORONAVIRUS INFECTION” (priority 2021, published 2023).
Where two headings read alike, the source gives them in different places. Marks after values point to notes of the source that are not given here.

Tests used:
[1] = test system: SARS-CoV-2; experiment: CPE reduction assay in Vero E6 cells with pharmaceutical formulations (Example 8); format: cell-based; conditions: for inhibitory / antiviral effect in CPE reduction assay: FIGS. 7D-7E; for EC50: Severe acute respiratory syndrome coronavirus 2, Vero C1008, 72 h, Vero E6, 3 days, read-out: EC50, inhibition of virus-induced cell death
[2] = test system: SARS-CoV-2 virions; conditions: 2 h at 37° C., below the limit of detection
[3] = test system: SARS-CoV-2; experiment: CPE reduction assay in Vero E6 cells with pharmaceutical formulations dissolved in DMSO (Example 6); format: cell-based; conditions: Severe acute respiratory syndrome coronavirus 2, Vero C1008, 72 h, read-out: EC50, inhibition of virus-induced cell death
[4] = test system: Vero E6 cells; conditions: for concentration after which compound-related cytotoxicity was observed: Vero E6, 3 days; for concentrations without toxicity to uninfected cells: FIG. 1B
[5] = test system: SARS-CoV-2; conditions: HuH7.5, Calu-3 and Vero cells; Dittmar et al.; cited from earlier work
[6] = Phase 2b study in de novo kidney transplant recipients (Example 3); format: in vivo, human
Experimental: De novo kidney transplant recipients were enrolled into a 6 month, Phase 2b, multi-center, randomized, open-label study. […] In addition, all subjects received induction immunosuppression with intravenous daclizumab or basiliximab (dosed per product labeling) and received concomitant treatment during the study with MMF and corticosteroids. […] Adverse reactions were recorded and renal graft rejection was assessed based on Banff classification. At 3-month and 6-month time points, adverse reactions were analyzed. Graft survival and patient survival were also recorded at the 6-month time point.

[7] = test system: SARS-CoV-2; experiment: microbe, parasite or virus in culture; format: cell-based
[8] = test system: SARS-CoV-2; format: cell-based
[9] = test system: Calu-3 cells; conditions: plastic, Calu-3, FIG. 6D
[10] = Binding to plastic labware (coated or uncoated 96-well plates), remaining concentration by LC-MS/MS (Example 12); format: physicochemical
Experimental: Plastic labware was coated with three different coating agents: 100 mg/ml bovine serum albumin in PBS (BSA; Sigma), 1% polyethylene glycol 3350 in MilliQ water (PEG-3350; Sigma) and 0.2% polysorbate 40 in MilliQ water (Tween40; Fluka). In addition, the plastic materials with VCS by treating them with a 500 mM VCS solution in DMSO (Sigma). Labware, including all tubes, tips and culture plastics, was filled with blocking solution and incubated for 2 h at room temperature with rocking to homogenously coat the surfaces. After rinsing twice with MilliQ water, the items were left to dry at room temperature until further use in experiments. Solutions of 0.2 and 2 μM of VCS were prepared in EMEM-2% FCS and 100 μl of each VCS solution was incubated in coated 96-well plates. After a 2 h incubation at 37° C. the remaining VCS concentration was measured by validated LC-MS/MS.

[11] = test system: SARS-CoV-2; experiment: microbe, parasite or virus in culture; format: cell-based; conditions: for EC50: Severe acute respiratory syndrome coronavirus 2, Vero C1008, FIG. 1C, Vero E6 CPE reduction, read-out: EC50 inhibition of SARS-CoV-2
[12] = test system: Calu-3 cells; conditions: with cells, glass
[13] = VCS concentration after incubation in glass without cells, LC-MS/MS; format: physicochemical; conditions: for Conc: 3.2 μM supplied solution, without cells, glass
[14] = test system: norovirus; conditions: compared with CsA; cited from earlier work
[15] = test system: SARS-CoV-2; conditions: prednisone + voclosporin, expected
[16] = format: physicochemical
[17] = test system: Vero E6 cells; experiment: Cytotoxicity in mock-infected Vero E6 cells, pure powder stocks (Example 11); format: cell-based, African green monkey; conditions: solution from pure powder
Experimental: CPE reductions assays in Vero E6 cells were performed, generally as described above, except that pre-incubation of cells with the tested compounds lasted 30 minutes. Plates were incubated for three days at 37° C. and cell viability was determined using a colorimetric assay, measuring the absorption at 495 nm. The EC50 and CC50 of each compound was determined and analysis of the resultant data using non-linear regression. For each compound, at least two independent experiments (each in quadruplicate) were completed.
CPE reduction assays were performed as described above, using high purity powders of immunosuppressive drugs solubilized in DMSO. Test stock solutions were prepared from pure powders of each compound. In the case of Neoral (CsA microemulsion), CsA powder, the most commonly used CsA derivative in KTR treatment, was evaluated.

[18] = in vitro; conditions: African green monkey
[19] = test system: calcineurin; conditions: in vitro and in vivo; Kuglstatter et al.; cited from earlier work
[20] = test system: SARS-CoV-2; experiment: SARS-CoV-2 viral load reduction assay in Vero E6 cells, plaque assay and NSP4 staining (Example 2); format: cell-based
[21] = Vero E6, MOI 0.015, three days, pharmaceutical formulation in DMSO, estimated concentrations
[22] = plastic labware, 0.8 μM stock solution, 2 h

Structure (SMILES): CO[C@H]1C[C@@H]2CC[C@@H](C)[C@@](O)(O2)C(=O)C(=O)N2CCCC[C@H]2C(=O)O[C@H]([C@H](C)C[C@@H]2CC[C@@H](OCCO)[C@H](OC)C2)CC(=O)[C@H](C)/C=C(\C)[C@@H](O)[C@@H](OC)C(=O)[C@H](C)C[C@H](C)/C=C/C=C/C=C/1C [EVL, everolimus]
- inhibitory / antiviral effect in CPE reduction assay [1]: did not show an inhibitory effect

Structure (SMILES): CCO [50% ethanol, ethanol]
- amount of infectious SARS-CoV-2 remaining [2]: < 100 PFU/ml

Structure (SMILES): COc1c(C)c2c(c(O)c1C/C=C(\C)CCC(=O)O)C(=O)OC2 [mycophenolate, mycophenolic acid]
- EC50 [3, 21]: 3.1 µM

Structure (SMILES): COc1c(C)c2c(c(O)c1C/C=C(\C)CCC(=O)OCCN1CCOCC1)C(=O)OC2 [MMF, mycophenolate mofetil]
- inhibitory / antiviral effect in CPE reduction assay [1]: apparent antiviral effect

Structure (SMILES): C=CC[C@@H]1/C=C(\C)C[C@H](C)C[C@H](OC)[C@H]2O[C@@](O)(C(=O)C(=O)N3CCCC[C@H]3C(=O)O[C@H](/C(C)=C/[C@@H]3CC[C@@H](O)[C@H](OC)C3)[C@H](C)[C@@H](O)CC1=O)[C@H](C)C[C@@H]2OC [tacrolimus, reference compound]
- concentration after which compound-related cytotoxicity was observed [4]: above 25 μM
- concentration after which compound-related cytotoxicity was observed ([4]; listed as Tacrolimus): > 25 µM
- activity on SARS-CoV-2 replication in a previous report [5]: no activity
- blood trough level ([6]; standard dose 0.05 mg/kg BID, months 0-3): 7 to 20 ng/mL
- blood trough level ([6]; standard dose 0.05 mg/kg BID, months 0-6 as printed): 5 to 15 ng/mL
- Nankivell eGFR ([6]; standard dose group): 69 mL/min
- Graft survival ([6]; standard dose, 6 month): 97.7%
- NODAT (new onset of diabetes after transplant) incidence ([6]; standard dose, 6 month): 16.4%
- Patient survival ([6]; standard dose, 6 month): 97.7%
- NODAT (new onset of diabetes after transplant) incidence ([6]; standard dose, 6 month, listed as Tacrolimus): 16.4%
- Central BPAR (biopsy proven acute rejection), patients (incidence) ([6]; standard dose, N = 86, 6 month post-transplantation): 5 (5.8%)
- EC50 ([7]; Severe acute respiratory syndrome coronavirus 2, Vero C1008, solutions prepared from pure powder, read-out: EC50, inhibition of SARS-CoV-2 in Vero E6 cells): ~15 µM
- reduction in SARS-CoV-2 infectious progeny titers ([8]; 3.2 μM, glass labware, Calu-3, 24 h p.i., FIG. 6A): ~0.5 log
- EC50 [3, 21]: 12 µM
- cytotoxicity [9]: did not display much cytotoxicity
- EC50 [1]: 10 ± 1 µM
- Conc ([10]; plastic labware, 0.8 μM stock solution, 0 h): 0.85 µM
- % rem [10, 22]: 76%
- Conc [10, 22]: 0.65 µM
- loss by binding to plastic ([10]; plastic labware, 2 h): 24%
- EC50 [11]: ~25 µM
- protection of infected cells from virus-induced cytopathic effects ([11]; dosages up to 25 μM): did not protect

Structure (SMILES): C=C/C=C/C[C@@H](C)[C@@H](O)[C@H]1C(=O)N[C@@H](CC)C(=O)N(C)CC(=O)N(C)[C@@H](CC(C)C)C(=O)N[C@@H](C(C)C)C(=O)N(C)[C@@H](CC(C)C)C(=O)N[C@@H](C)C(=O)N[C@H](C)C(=O)N(C)[C@@H](CC(C)C)C(=O)N(C)[C@@H](CC(C)C)C(=O)N(C)[C@@H](C(C)C)C(=O)N1C [voclosporin]
- concentrations without toxicity to uninfected cells ([4]; batch 4): up to 10 μM
- concentrations without toxicity to uninfected cells ([4]; unit not given): under 2
- Conc ([12]; 0.2 μM supplied solution, 0 h): 0.33 µM
- Conc ([12]; 0.2 μM supplied solution, 24 h, below detection limit): <0.07* μM
- Conc ([12]; 0.4 μM supplied solution, 0 h): 0.45 µM
- Conc ([12]; 0.4 μM supplied solution, 24 h): 0.10 µM
- Conc ([12]; 0.8 μM supplied solution, 0 h): 0.99 µM
- Conc ([12]; 0.8 μM supplied solution, 24 h): 0.15 µM
- Conc ([12]; 1.6 μM supplied solution, 0 h): 1.77 µM
- Conc ([12]; 1.6 μM supplied solution, 24 h): 0.35 µM
- Conc ([12]; 3.2 μM supplied solution, 0 h): 2.91 µM
- Conc ([12]; 3.2 μM supplied solution, 24 h): 0.82 µM
- NODAT (new onset of diabetes after transplant) incidence ([6]; high dose, 6 month): 17.7%
- NODAT (new onset of diabetes after transplant) incidence ([6]; high dose, 6 month, listed as Voclosporin): 17.7%
- Central BPAR (biopsy proven acute rejection), patients (incidence) ([6]; high dose, N = 87, 6 month post-transplantation): 2 (2.3%)
- blood trough level ([6]; high-dose 0.8 mg/kg BID, months 0-3): 60 to 85 ng/mL
- blood trough level ([6]; high-dose 0.8 mg/kg BID, months 3-6): 31 to 40 ng/mL
- NODAT (new onset of diabetes after transplant) incidence ([6]; low dose, 6 month): 1.6%
- NODAT (new onset of diabetes after transplant) incidence ([6]; low dose, 6 month, listed as Voclosporin): 1.6%
- Central BPAR (biopsy proven acute rejection), patients (incidence) ([6]; low dose, N = 84, 6 month post-transplantation): 9 (10.7%)
- blood trough level ([6]; low-dose 0.4 mg/kg BID, months 0-3): 20 to 30 ng/mL
- blood trough level ([6]; low-dose 0.4 mg/kg BID, months 3-6): 11 to 20 ng/mL
- NODAT (new onset of diabetes after transplant) incidence ([6]; mid dose, 6 month): 5.7%
- NODAT (new onset of diabetes after transplant) incidence ([6]; mid dose, 6 month, listed as Voclosporin): 5.7%
- Central BPAR (biopsy proven acute rejection), patients (incidence) ([6]; mid dose, N = 77, 6 month post-transplantation): 7 (9.1%)
- blood trough level ([6]; mid-dose 0.6 mg/kg BID, months 0-3): 35 to 50 ng/mL
- protection of SARS-CoV-2 infected cells compared with the pharmaceutical formulation [7]: did not confer the same level of protection
- reduction in SARS-CoV-2 infectious progeny titers [8]: more than 1.5 log
- EC50 [3]: 0.27 µM
- cytotoxicity [9]: did not
- Conc ([13]; 0 h): 2.91 µM
- Conc ([13]; 24 h): 2.79 µM
- loss of compound from solution ([13]; 24 h at 37° C. in glass without cells): No significant loss
- inhibition of norovirus replication [14]: inhibit norovirus replication in a CypA-dependent manner and more effectively than CsA
- times lower EC50 compared to the other compounds tested [1]: 18-45 times
- EC50 [1]: 0.22 ± 0.01 µM
- SARS-CoV-2 viral load and CPEs compared to the tacrolimus group ([15]; 6 capsules of 7.9 mg BID): more efficacious reduction in viral load, and less severe CPEs
- graft rejections, diabetes and adverse effects compared to the tacrolimus group [15]: comparable or lower incidences of graft rejections, diabetes and adverse effects
- detected concentration in the medium of infected cells ([16]; after 24 h treatment with 25 μM VCS, standard plastic labware): 0.68 µM
- VCS lost due to plastic binding ([16]; considering a […]% reduction due to cellular binding or uptake): 90%
- bioavailable amount of what was added initially when using plastic ([16]; plastic labware): ~10%
- cytotoxicity in mock-infected cells compared with the pharmaceutical formulation [17]: less cytotoxicity
- CC50 [18]: ~4 µM
- increase of binding affinity to calcineurin compared to CsA [19]: up to five-fold
- Conc ([10]; 100 mg/ml BSA solution coating, 2 μM VCS, 0 h): 0.55 ± 0.21 µM
- Conc ([10]; 100 mg/ml BSA solution coating, 2 μM VCS, 2 h): 0.10 ± 0.04 µM
- Conc ([10]; 0.2% Tween-40 solution coating, 2 μM VCS, 0 h): 0.56 ± 0.35 µM
- Conc ([10]; 0.2% Tween-40 solution coating, 2 μM VCS, 2 h): 0.09 ± 0.04 µM
- Conc ([10]; 1% PEG-3350 solution coating, 2 μM VCS, 0 h): 0.51 ± 0.16 µM
- Conc ([10]; 1% PEG-3350 solution coating, 2 μM VCS, 2 h): 0.09 ± 0.02 µM
- Conc ([10]; Uncoated plastic, 2 μM VCS, 0 h): 0.56 ± 0.25 µM
- Conc ([10]; Uncoated plastic, 2 μM VCS, 2 h): 0.13 ± 0.07 µM
- original stock concentration recovered ([10]; t=0): ~27%
- EC50 [11]: ~0.4 µM
- concentration preserving viability of infected cells at level of mock-infected/uninfected cells ([11]; Vero E6, 3 days): 0.8 µM
- concentration above which viral titer was reduced to the limit of detection ([20]; Vero E6, FIG. 2A, unit not given): above 1.00
- amount of SARS-CoV-2 infected cells, fluorescent staining of viral NSP4 ([20]; Vero E6, FIG. 2C): reduced the amount of SARS-CoV-2 infected cells in a dose-dependent manner
